Values after ≈ are worked out from the molar mass of the structure shown. Marks after values point to notes of the source that are not given here.
Assays:
[1] = tested on: S. aureus Human ATCC 25923; test: MIC determination, S. aureus human ATCC 25923; type: cell-based; conditions: Staphylococcus aureus, ATCC25923; Gram-positive; Mueller-Hinton medium, 24 h at 37° C.
Method in brief: (§1)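 Strains, thawed from −80 °C glycerol stocks, are grown in Mueller-Hinton medium and seeded at OD 0.01 per well. Test compounds, prepared at 5 mg/mL in DMSO/methanol 50/50, are serially diluted by half. After 24 h at 37 °C, turbidity at 620 nm gives the MIC.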

S. aureus Animal (340) = test: MIC determination, S. aureus animal (340); type: cell-based; conditions: Staphylococcus aureus; Gram-positive; Mueller-Hinton medium, 24 h at 37° C.
Method in brief: as §1

E. coli Human ATCC 28922 = test: MIC determination, E. coli human ATCC 28922; type: cell-based; conditions: Escherichia coli, ATCC28922; Gram-negative; Mueller-Hinton medium, 24 h at 37° C.
Method in brief: as §1

E. coli Animal (1956) = test: MIC determination, E. coli animal (1956); type: cell-based; conditions: Escherichia coli; Gram-negative; Mueller-Hinton medium, 24 h at 37° C.
Method in brief: as §1

[2] = tested on: P. aeruginosa Human ATCC 27853; test: MIC determination, P. aeruginosa human ATCC 27853; type: cell-based; conditions: Pseudomonas aeruginosa, ATCC27853; Gram-negative; Mueller-Hinton medium, 24 h at 37° C.
Method in brief: as §1

P. aeruginosa (1051575) [3] = test: Potentiation of erythromycin activity (combination MIC); type: cell-based, Pseudomonas aeruginosa; conditions: erythromycin 2 μg/mL; concentration of compound required to restore antibiotic activity
Method in brief: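 Broth microdilution with wells seeded at OD 0.01 (about 5×10^6 bacteria/well). The test compound was serially diluted against each antibiotic held at a final 2 μg/mL. After 24 h at 37 °C in humid air, live bacteria were stained pink with nitro tetrazolium iodide; the value is the compound concentration restoring antibiotic activity.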

P. aeruginosa (1051575) [4] = test: Potentiation of chloramphenicol activity (combination MIC); type: cell-based, Pseudomonas aeruginosa; conditions: concentration of compound required to restore antibiotic activity
C. albicans = test: Antifungal activity, cascade microdilution; type: cell-based; conditions: Candida albicans, 24 h, read-out: IC50 (μg/mL) C. albicans

SMILES | MIC [1] | MIC (S. aureus Animal (340)) | MIC (E. coli Human ATCC 28922) | MIC (E. coli Animal (1956)) | MIC [2] | MIC P. aeruginosa (1051575) compound + erythromycin (P. aeruginosa (1051575) [3]) | MIC P. aeruginosa (1051575) compound + chloramphenicol (P. aeruginosa (1051575) [4]; chloramphenicol 4 μg/mL) | IC50 (C. albicans) | MIC P. aeruginosa (1051575) compound + chloramphenicol (P. aeruginosa (1051575) [4]; chloramphenicol 2 μg/mL)
CC(C)NC(=O)CC[C@@H](C)[C@H]1CCC2C3C(CC[C@@]21C)[C@@]1(C)CC[C@H](NCCCNCCCN)CC1C[C@H]3O (stereo partly drawn) [(8), 3β-norspermidino-N-isopropylchenodeoxycholamide] | 6 mg/L (≈ 11 µM) | 3 mg/L (≈ 5.49 µM) | 14 mg/L (≈ 25.6 µM) | 14 mg/L (≈ 25.6 µM) | 54 mg/L (≈ 98.7 µM) | 27 µg/mL | 2 mg/L | 1 µg/mL (≈ 1.83 µM) | 
CC(C)NC(=O)CC[C@@H](C)[C@H]1CCC2C3C(C[C@H](O)[C@@]21C)[C@@]1(C)CC[C@H](NCCCNCCCN)CC1C[C@H]3O (stereo partly drawn) [(5), 3β-norspermidino-N-isopropylcholamide] | 8 mg/L (≈ 14.2 µM) | 16 mg/L (≈ 28.4 µM) | 16 mg/L (≈ 28.4 µM) | 32 mg/L (≈ 56.9 µM) | 64 mg/L (≈ 114 µM) | 32* μg/mL | 2 mg/L | 4 µg/mL (≈ 7.11 µM) | 4 mg/L
CC(C)NC(=O)CC[C@@H](C)[C@H]1CCC2C3CCC4C[C@@H](NCCCN(C)CCCN)CC[C@]4(C)C3C[C@H](O)[C@@]21C (some centres unmarked) [(25)] | 7 mg/L (≈ 12.5 µM) | 14 mg/L (≈ 25 µM) | 14 mg/L (≈ 25 µM) | 14 mg/L (≈ 25 µM) | 28 mg/L (≈ 49.9 µM) | 28 µg/mL | 2 mg/L |  | 
CC(C)NC(=O)CC[C@@H](C)[C@H]1CCC2C3C(CC[C@@]21C)[C@@]1(C)CC[C@H](NCCCN(C)CCCN)CC1C[C@H]3O (stereo partly drawn) [(27), 3β-(bis(3-aminopropyl)methylamine)-N-isopropylchenodeoxycholamide] | 8 mg/L (≈ 14.3 µM) | 8 mg/L (≈ 14.3 µM) | 16 mg/L (≈ 28.5 µM) | 32 mg/L (≈ 57 µM) | 32 mg/L (≈ 57 µM) | 28 µg/mL | 1 mg/L | 2 µg/mL (≈ 3.57 µM) | 4 mg/L
CC(C)NC(=O)CC[C@@H](C)[C@H]1CCC2C3CCC4C[C@@H](NCCCNCCCN)CC[C@]4(C)C3C[C@H](O)[C@@]21C (stereo partly drawn) [Compound (2), 3β-norspermidino-N-isopropyldeoxycholamide] | 4 mg/L (≈ 7.31 µM) | 2 mg/L (≈ 3.66 µM) | 14 mg/L (≈ 25.6 µM) | 14 mg/L (≈ 25.6 µM) | 28 mg/L (≈ 51.2 µM) | 3* μg/mL | 0.9 mg/L |  | 0.9 mg/L
CC(C)NC(=O)CC[C@@H](C)[C@H]1CCC2C3C(CC[C@@]21C)[C@@]1(C)CC[C@H](NCCCNCCCN)CC1C[C@@H]3O (stereo partly drawn) [(15), 3β-norspermidino-N-isopropylursodeoxycholamide] | 28 mg/L (≈ 51.2 µM) | 56 mg/L (≈ 102 µM) | 56 mg/L (≈ 102 µM) | 112 mg/L (≈ 205 µM) | 56 mg/L (≈ 102 µM) | 55 µg/mL | 2 mg/L | 14 µg/mL (≈ 25.6 µM) | 7 mg/L
CC(C)NC(=O)CC[C@@H](C)[C@H]1CCC2C3C(CC[C@@]21C)[C@@]1(C)CC[C@H](NCCCNCCCNCCCN)CC1C[C@H]3O (stereo partly drawn) [(7), 3β-norspermino-N-isopropylchenodeoxycholamide] | 4 mg/L (≈ 6.62 µM) | 2 mg/L (≈ 3.31 µM) | 15 mg/L (≈ 24.8 µM) | 8 mg/L (≈ 13.2 µM) | 30 mg/L (≈ 49.7 µM) | 15 µg/mL | 2 mg/L |  | 
CC(C)NC(=O)CC[C@@H](C)[C@H]1CCC2C3C(CC[C@@]21C)[C@@]1(C)CC[C@H](NCCCNCCCCNCCCN)CC1C[C@@H]3O (stereo partly drawn) [Compound (35), 3β-spermino-N-isopropylursodeoxycholamide] | 16 mg/L (≈ 25.9 µM) | 16 mg/L (≈ 25.9 µM) | 64 mg/L (≈ 104 µM) | 64 mg/L (≈ 104 µM) | 32 mg/L (≈ 51.8 µM) | 32 µg/mL | 2 mg/L | 1 µg/mL (≈ 1.62 µM) | 
